Assay results as given in patent US11793849B2, “Method of Chinese herbal medicine extract used for treating multiple diseases caused by drug resistant bacteria infection” (priority 2016, dated 2023).
Like-named read-outs stand apart in the source and are kept apart here.

Test system: MDRAB
Assay: MIC determination, microdilution broth method
Type: cell-based, Acinetobacter baumannii
Conditions: Acinetobacter baumannii

Measured: MIC

Method: Determination methods of a Minimal Inhibitory Concentration (MIC) and a Minimum Bactericidal Concentration (MBC) of a test product: the MIC and the MBC of the Pithecellobium clypearia Benth water or ethanol extract to the MDRAB are determined by a microdilution broth method. And it is operated by referring to the microdilution broth method recommended by National Committee for Clinical Laboratory Standards (NCCLS).

C[C@H]1COc2c(N3CCN(C)CC3)c(F)cc3c(=O)c(C(=O)O)cn1c23 [LVX, Levofloxacin]
16 µg/mL: strain A2, EA=60% ethanol extract, read-out: MIC | strain A2, EA=95% ethanol extract, read-out: MIC | strain A2, EA=P. clypearia 95% ethanol extract, read-out: single-use MIC | strain A2, single use, EA=10% ethanol extract, read-out: MIC | strain A2, single use, EA=water extract, read-out: MIC | strain A3, EA=P. clypearia 95% ethanol extract, read-out: single-use MIC | strain A14, EA=60% ethanol extract, read-out: MIC | strain A14, EA=95% ethanol extract, read-out: MIC | strain A14, EA=P. clypearia 95% ethanol extract, read-out: single-use MIC | strain A14, single use, EA=10% ethanol extract, read-out: MIC | strain A14, single use, EA=water extract, read-out: MIC | strain A17, EA=60% ethanol extract, read-out: MIC
8 µg/mL: strain A6, EA=60% ethanol extract, read-out: MIC | strain A6, EA=95% ethanol extract, read-out: MIC | strain A6, EA=P. clypearia 95% ethanol extract, read-out: single-use MIC | strain A6, single use, EA=10% ethanol extract, read-out: MIC | strain A6, single use, EA=water extract, read-out: MIC | strain A7, EA=60% ethanol extract, read-out: MIC | strain A7, EA=95% ethanol extract, read-out: MIC | strain A7, EA=P. clypearia 95% ethanol extract, read-out: single-use MIC | strain A7, single use, EA=10% ethanol extract, read-out: MIC | strain A7, single use, EA=water extract, read-out: MIC | strain A16, EA=60% ethanol extract, read-out: MIC | strain A16, EA=95% ethanol extract, read-out: MIC | strain A16, EA=P. clypearia 95% ethanol extract, read-out: single-use MIC | strain A16, single use, EA=10% ethanol extract, read-out: MIC | strain A16, single use, EA=water extract, read-out: MIC
32 µg/mL: strain A10, EA=60% ethanol extract, read-out: MIC | strain A10, EA=95% ethanol extract, read-out: MIC | strain A10, EA=P. clypearia 95% ethanol extract, read-out: single-use MIC | strain A10, single use, EA=10% ethanol extract, read-out: MIC | strain A10, single use, EA=water extract, read-out: MIC | strain A12, EA=60% ethanol extract, read-out: MIC | strain A12, EA=95% ethanol extract, read-out: MIC | strain A12, EA=P. clypearia 95% ethanol extract, read-out: single-use MIC | strain A12, single use, EA=10% ethanol extract, read-out: MIC | strain A12, single use, EA=water extract, read-out: MIC | strain A13, EA=60% ethanol extract, read-out: MIC | strain A13, EA=95% ethanol extract, read-out: MIC | strain A13, EA=P. clypearia 95% ethanol extract, read-out: single-use MIC | strain A13, single use, EA=10% ethanol extract, read-out: MIC | strain A13, single use, EA=water extract, read-out: MIC | strain A15, EA=60% ethanol extract, read-out: MIC | strain A15, EA=95% ethanol extract, read-out: MIC | strain A15, EA=P. clypearia 95% ethanol extract, read-out: single-use MIC | strain A15, single use, EA=10% ethanol extract, read-out: MIC | strain A15, single use, EA=water extract, read-out: MIC
4 µg/mL: strain A3, EA=60% ethanol extract, read-out: MIC | strain A3, EA=95% ethanol extract, read-out: MIC | strain A3, single use, EA=10% ethanol extract, read-out: MIC | strain A5, EA=60% ethanol extract, read-out: MIC | strain A5, EA=95% ethanol extract, read-out: MIC | strain A5, single use, EA=10% ethanol extract, read-out: MIC | strain A5, single use, EA=water extract, read-out: MIC | strain A8, EA=60% ethanol extract, read-out: MIC | strain A8, EA=95% ethanol extract, read-out: MIC | strain A8, EA=P. clypearia 95% ethanol extract, read-out: single-use MIC | strain A8, single use, EA=10% ethanol extract, read-out: MIC | strain A8, single use, EA=water extract, read-out: MIC | strain A9, EA=60% ethanol extract, read-out: MIC | strain A9, EA=95% ethanol extract, read-out: MIC | strain A9, EA=P. clypearia 95% ethanol extract, read-out: single-use MIC | strain A9, single use, EA=10% ethanol extract, read-out: MIC | strain A9, single use, EA=water extract, read-out: MIC | strain A11, EA=60% ethanol extract, read-out: MIC | strain A11, EA=95% ethanol extract, read-out: MIC | strain A11, EA=P. clypearia 95% ethanol extract, read-out: single-use MIC | strain A11, single use, EA=10% ethanol extract, read-out: MIC | strain A11, single use, EA=water extract, read-out: MIC
0.5 µg/mL: strain A1, EA=60% ethanol extract, read-out: MIC | strain A1, EA=95% ethanol extract, read-out: MIC | strain A1, EA=P. clypearia 95% ethanol extract, read-out: single-use MIC | strain A1, single use, EA=10% ethanol extract, read-out: MIC | strain A1, single use, EA=water extract, read-out: MIC | strain A4, EA=60% ethanol extract, read-out: MIC | strain A4, EA=95% ethanol extract, read-out: MIC | strain A4, EA=P. clypearia 95% ethanol extract, read-out: single-use MIC | strain A4, single use, EA=10% ethanol extract, read-out: MIC | strain A4, single use, EA=water extract, read-out: MIC
